# Measured values reported in patent publication US20210290676A1, “IMPROVING THE EFFICACY AND SAFETY OF ADOPTIVE CELLULAR THERAPIES” (University of Southern California, priority 2018, published 2021).
# What was measured:
# Format in all cases: cell-based, human
# [1] = system: CD8+CD45RA+CCR7+CD62L+ T cells; assay: Flow cytometry for CD8, CD45RA, CCR7 and CD62L on inhibitor-treated T cells; settings: for % of CD62L+CCR7+ double positive cells out of CD45RA+ cells in CD8+ T cell population: 13 days of treatment; for GATE P4 CD8(PerCP)+, CD45RA(FITC)+, CCR7 (PE)+, CD62L(APC): cells cultured for 14 days
# Method in brief: (§1)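 Donor T cells were isolated from PBMC with CD3 microbeads and activated overnight in XVIVO 15 with IL2 50 IU/ml plus 30 ng/ml anti-CD3/CD28. They were treated with drugs from day 1, with medium and drug refreshed on days 7 and 13. After 13–14 days, cells were stained for CD8, CD45RA, CCR7 and CD62L (4 °C, 1 h) and analysed by flow cytometry.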
# [2] = system: Pgp+ (DiOC2(3)-dye effluxing cells) and CD62L+ T cells; assay: DiOC2(3) dye efflux plus CD62L-APC staining, flow cytometry of inhibitor-treated T cells; settings: for p5: double +ve pgp+ and CD62L-APC+ from Live cells: treatment for 13 days, IL2 + CD3 and CD28 antibodies
# Method in brief: (§2)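 Donor PBMC-derived T cells, stimulated with IL2 (50 IU/ml) and/or CD3/CD28 antibodies (30 ng/ml), were exposed to inhibitors from day 1 for about 13 days with periodic drug re-addition. Cells were loaded with DiOC2(3) (60 ng/ml, 4° C, 40 min), effluxed at 37° C for 90 min, and optionally stained with CD62L-APC. Flow cytometry scored DiOC2(3)-dull (Pgp+) and CD62L+ populations.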
# [3] = system: Pgp+ (DiOC2(3)-dye effluxing) T cells; assay: DiOC2(3) dye efflux flow cytometry of inhibitor-treated T cells; settings: for p2: pgp+ from Live cells: treatment for 13 days, IL2 + CD3 and CD28 antibodies
# Method in brief: as §2
# [4] = system: CD45RA+CCR7+CD62L+ T cells; assay: Flow cytometry for CD45RA, CCR7 and CD62L on inhibitor-treated T cells (all T cells); settings: for % of CD62L+CCR7+ double positive cells out of CD45RA+ cells in live T cell population: 13 days treatment; for GATE P6 CD45RA(FITC)+, CCR7 (PE)+, CD62L(APC): cells cultured for 14 days
# Method in brief: as §1
# [5] = CD3-CD28-IL2 culture, inhibitor 10 nM
# [6] = CD3-CD28-IL2 culture, inhibitor 100 nM
# [7] = CD3-CD28-IL2 culture, inhibitor 200 nM
# [8] = CD3-CD28 culture, inhibitor 10 nM
# [9] = CD3-CD28 culture, inhibitor 100 nM
# [10] = CD3-CD28 culture, inhibitor 200 nM
# [11] = CD3-IL2 culture, inhibitor 10 nM
# [12] = CD3-IL2 culture, inhibitor 100 nM
# [13] = CD3-IL2 culture, inhibitor 200 nM
molecule,measurement,setting,value
CCN(c1cc(-c2ccc(CN3CCOCC3)cc2)cc(C(=O)NCc2c(C)cc(C)[nH]c2=O)c1C)C1CCOCC1 [Tazemetostat],% of CD62L+CCR7+ double positive cells out of CD45RA+ cells in CD8+ T cell population,[1]; [5],62.73%
same,% of CD62L+CCR7+ double positive cells out of CD45RA+ cells in CD8+ T cell population,[1]; [6],83.53%
same,% of CD62L+CCR7+ double positive cells out of CD45RA+ cells in CD8+ T cell population,[1]; [7],80.78%
same,% of CD62L+CCR7+ double positive cells out of CD45RA+ cells in CD8+ T cell population,[1]; [8],87.00%
same,% of CD62L+CCR7+ double positive cells out of CD45RA+ cells in CD8+ T cell population,[1]; [9],88.26%
same,% of CD62L+CCR7+ double positive cells out of CD45RA+ cells in CD8+ T cell population,[1]; [10],88.37%
same,% of CD62L+CCR7+ double positive cells out of CD45RA+ cells in CD8+ T cell population,[1]; [11],82.23%
same,% of CD62L+CCR7+ double positive cells out of CD45RA+ cells in CD8+ T cell population,[1]; [12],79.86%
same,% of CD62L+CCR7+ double positive cells out of CD45RA+ cells in CD8+ T cell population,[1]; [13],77.35%
same,% of Pgp+ CD62L+cells out of live cells,"[2]; CD3-CD28-IL2 culture, inhibitor 10 nM, 6 days treatment",8.42%
same,% of Pgp+ CD62L+cells out of live cells,"[2]; CD3-CD28-IL2 culture, inhibitor 10 nM, 13 days treatment",8.03%
same,% of Pgp+ CD62L+cells out of live cells,"[2]; CD3-CD28-IL2 culture, inhibitor 100 nM, 6 days treatment",13.16%
same,% of Pgp+ CD62L+cells out of live cells,"[2]; CD3-CD28-IL2 culture, inhibitor 100 nM, 13 days treatment",12.57%
same,% of Pgp+ CD62L+cells out of live cells,"[2]; CD3-CD28-IL2 culture, inhibitor 200 nM, 6 days treatment",11.30%
same,% of Pgp+ CD62L+cells out of live cells,"[2]; CD3-CD28-IL2 culture, inhibitor 200 nM, 13 days treatment",14.25%
same,% of Pgp+ CD62L+cells out of live cells,"[2]; CD3-CD28 culture, inhibitor 10 nM, 6 days treatment",19.36%
same,% of Pgp+ CD62L+cells out of live cells,"[2]; CD3-CD28 culture, inhibitor 10 nM, 13 days treatment",2.95%
same,% of Pgp+ CD62L+cells out of live cells,"[2]; CD3-CD28 culture, inhibitor 100 nM, 6 days treatment",18.38%
same,% of Pgp+ CD62L+cells out of live cells,"[2]; CD3-CD28 culture, inhibitor 100 nM, 13 days treatment",1.18%
same,% of Pgp+ CD62L+cells out of live cells,"[2]; CD3-CD28 culture, inhibitor 200 nM, 6 days treatment",20.94%
same,% of Pgp+ CD62L+cells out of live cells,"[2]; CD3-CD28 culture, inhibitor 200 nM, 13 days treatment",2.66%
same,% of Pgp+ CD62L+cells out of live cells,"[2]; CD3-IL2 culture, inhibitor 10 nM, 6 days treatment",8.76%
same,% of Pgp+ CD62L+cells out of live cells,"[2]; CD3-IL2 culture, inhibitor 10 nM, 13 days treatment",9.87%
same,% of Pgp+ CD62L+cells out of live cells,"[2]; CD3-IL2 culture, inhibitor 100 nM, 6 days treatment",10.11%
same,% of Pgp+ CD62L+cells out of live cells,"[2]; CD3-IL2 culture, inhibitor 100 nM, 13 days treatment",4.31%
same,% of Pgp+ CD62L+cells out of live cells,"[2]; CD3-IL2 culture, inhibitor 200 nM, 6 days treatment",11.97%
same,% of Pgp+ CD62L+cells out of live cells,"[2]; CD3-IL2 culture, inhibitor 200 nM, 13 days treatment",9.08%
same,percentage of Pgp+CD62L+ cells,"[2]; culture with CD3 antibody, CD28 antibody and IL2, 6 days of treatment, 100 nM",13.168%
same,% of Pgp+ cells out of live cells,"[3]; CD3-CD28-IL2 culture, inhibitor 10 nM, 6 days of treatment",21.86%
same,% of Pgp+ cells out of live cells,"[3]; CD3-CD28-IL2 culture, inhibitor 10 nM, 13 days of treatment",30.38%
same,% of Pgp+ cells out of live cells,"[3]; CD3-CD28-IL2 culture, inhibitor 100 nM, 6 days of treatment",27.17%
same,% of Pgp+ cells out of live cells,"[3]; CD3-CD28-IL2 culture, inhibitor 100 nM, 13 days of treatment",38.45%
same,% of Pgp+ cells out of live cells,"[3]; CD3-CD28-IL2 culture, inhibitor 200 nM, 6 days of treatment",24.85%
same,% of Pgp+ cells out of live cells,"[3]; CD3-CD28-IL2 culture, inhibitor 200 nM, 13 days of treatment",41.22%
same,% of Pgp+ cells out of live cells,"[3]; CD3-CD28 culture, inhibitor 10 nM, 6 days of treatment",39.28%
same,% of Pgp+ cells out of live cells,"[3]; CD3-CD28 culture, inhibitor 10 nM, 13 days of treatment",12.41%
same,% of Pgp+ cells out of live cells,"[3]; CD3-CD28 culture, inhibitor 100 nM, 6 days of treatment",40.50%
same,% of Pgp+ cells out of live cells,"[3]; CD3-CD28 culture, inhibitor 100 nM, 13 days of treatment",5.19%
same,% of Pgp+ cells out of live cells,"[3]; CD3-CD28 culture, inhibitor 200 nM, 6 days of treatment",43.11%
same,% of Pgp+ cells out of live cells,"[3]; CD3-CD28 culture, inhibitor 200 nM, 13 days of treatment",11.82%
same,% of Pgp+ cells out of live cells,"[3]; CD3-IL2 culture, inhibitor 10 nM, 6 days of treatment",24.77%
same,% of Pgp+ cells out of live cells,"[3]; CD3-IL2 culture, inhibitor 10 nM, 13 days of treatment",28.61%
same,% of Pgp+ cells out of live cells,"[3]; CD3-IL2 culture, inhibitor 100 nM, 6 days of treatment",25.31%
same,% of Pgp+ cells out of live cells,"[3]; CD3-IL2 culture, inhibitor 100 nM, 13 days of treatment",16.74%
same,% of Pgp+ cells out of live cells,"[3]; CD3-IL2 culture, inhibitor 200 nM, 6 days of treatment",25.89%
same,% of Pgp+ cells out of live cells,"[3]; CD3-IL2 culture, inhibitor 200 nM, 13 days of treatment",28.06%
same,percentage of Pgp+ cells,"[3]; culture with CD3 antibody, CD28 antibody and IL2, 6 days of treatment, 10 nM",27.17%
same,% of CD62L+CCR7+ double positive cells out of CD45RA+ cells in live T cell population,[4]; [5],50.85%
same,% of CD62L+CCR7+ double positive cells out of CD45RA+ cells in live T cell population,[4]; [6],67.51%
same,% of CD62L+CCR7+ double positive cells out of CD45RA+ cells in live T cell population,[4]; [7],66.36%
same,% of CD62L+CCR7+ double positive cells out of CD45RA+ cells in live T cell population,[4]; [8],77.81%
same,% of CD62L+CCR7+ double positive cells out of CD45RA+ cells in live T cell population,[4]; [9],79.62%
same,% of CD62L+CCR7+ double positive cells out of CD45RA+ cells in live T cell population,[4]; [10],78.45%
same,% of CD62L+CCR7+ double positive cells out of CD45RA+ cells in live T cell population,[4]; [11],67.30%
same,% of CD62L+CCR7+ double positive cells out of CD45RA+ cells in live T cell population,[4]; [12],63.89%
same,% of CD62L+CCR7+ double positive cells out of CD45RA+ cells in live T cell population,[4]; [13],59.08%
COc1cc2c(NC3CCN(C(C)C)CC3)nc(N3CCC(F)(F)CC3)nc2cc1OCCCN1CCCC1 [UNC0642],"GATE P4 CD8(PerCP)+, CD45RA(FITC)+, CCR7 (PE)+, CD62L(APC)",[1]; 10 nM,71.62%
same,"GATE P4 CD8(PerCP)+, CD45RA(FITC)+, CCR7 (PE)+, CD62L(APC)",[1]; 100 nM,82.37%
same,p5: double +ve pgp+ and CD62L-APC+ from Live cells,[2]; 10 nM,4.46
same,p5: double +ve pgp+ and CD62L-APC+ from Live cells,[2]; 100 nM,4.81
same,p2: pgp+ from Live cells,[3]; 10 nM,22.03
same,p2: pgp+ from Live cells,[3]; 100 nM,32.51
same,"GATE P6 CD45RA(FITC)+, CCR7 (PE)+, CD62L(APC)",[4]; 10 nM,63.95%
same,"GATE P6 CD45RA(FITC)+, CCR7 (PE)+, CD62L(APC)",[4]; 100 nM,75.75%
CCCc1cc(C)[nH]c(=O)c1CNC(=O)c1cc(-c2ccc(N3CCN(C(C)C)CC3)nc2)cc2c1cnn2C(C)C [UNC1999],"GATE P4 CD8(PerCP)+, CD45RA(FITC)+, CCR7 (PE)+, CD62L(APC)",[1]; 100 nM,71.75%
same,"GATE P4 CD8(PerCP)+, CD45RA(FITC)+, CCR7 (PE)+, CD62L(APC)",[1]; 500 nM,74.57%
same,p5: double +ve pgp+ and CD62L-APC+ from Live cells,[2]; 100 nM,11.06
same,p5: double +ve pgp+ and CD62L-APC+ from Live cells,[2]; 500 nM,8.9
same,p2: pgp+ from Live cells,[3]; 100 nM,36.8
same,p2: pgp+ from Live cells,[3]; 500 nM,31.14
same,"GATE P6 CD45RA(FITC)+, CCR7 (PE)+, CD62L(APC)",[4]; 100 nM,59.08%
same,"GATE P6 CD45RA(FITC)+, CCR7 (PE)+, CD62L(APC)",[4]; 500 nM,60.97%
BI7273,"GATE P4 CD8(PerCP)+, CD45RA(FITC)+, CCR7 (PE)+, CD62L(APC)",[1]; 100 nM,70.33%
same,"GATE P4 CD8(PerCP)+, CD45RA(FITC)+, CCR7 (PE)+, CD62L(APC)",[1]; 500 nM,77.81%
same,p5: double +ve pgp+ and CD62L-APC+ from Live cells,[2]; 100 nM,2.73
same,p5: double +ve pgp+ and CD62L-APC+ from Live cells,[2]; 500 nM,2.38
same,p2: pgp+ from Live cells,[3]; 100 nM,16.69
same,p2: pgp+ from Live cells,[3]; 500 nM,16.34
same,"GATE P6 CD45RA(FITC)+, CCR7 (PE)+, CD62L(APC)",[4]; 100 nM,57.15%
same,"GATE P6 CD45RA(FITC)+, CCR7 (PE)+, CD62L(APC)",[4]; 500 nM,61.86%
